Tests used:
BT-20 = test: Alamar Blue viability assay; type: cell-based; details: Homo sapiens, Breast, P53 Mut, 96-hour exposure
Protocol: (§1) Cultures of HeLa cells were exposed for 96 hours to different concentrations of IHSF 001, 058 and 115, and viability was assessed using an Alamar Blue assay. It is noted that this standard assay examines attached cells only. This subject will be discussed in more detail below. […] The relative cytotoxicity of the compounds appears to parallel their respective activities as inhibitors of HSF1 function (inhibition of RLuc expression in Z74 cells). We next examined the viability of different human cancer cell lines subsequent to a 96-hour exposure to compound 115 (Table 3). HSF1 was reported as being required for optimal p21 expression and for p53-mediated cell cycle arrest in response to genotoxins. Logan, I. R. et al. (2009) Nucleic Acids Res. 37: 2962-2971. […] Cell lines of different p53 status were included in the experiments in order to find out whether sensitivity to IHSF 115 was related to p53 status. […] No effect of p53 status could be discovered. It is noted that a number of additional HSF inhibitors of the present disclosure were tested and found to effectively reduce the viability of human cancer cells.

HCC1143 = test: Alamar Blue viability assay; type: cell-based; details: Homo sapiens, Breast, P53 Mut, 96-hour exposure
Protocol: as §1

HepG2 = test: Alamar Blue viability assay; type: cell-based; details: Homo sapiens, Hepatocellular, P53 Wt, 96-hour exposure
Protocol: as §1

IM9 = test: Alamar Blue viability assay; type: cell-based; details: Homo sapiens, IM-9, Multiple myeloma, P53 Wt, 96-hour exposure
Protocol: as §1

MM.1R = test: Alamar Blue viability assay; type: cell-based; details: Homo sapiens, Multiple myeloma, P53 Wt, 96-hour exposure
Protocol: as §1

NCI-H1975 = test: Alamar Blue viability assay; type: cell-based; details: Homo sapiens, Lung, P53 Wt, 96-hour exposure
Protocol: as §1

PC-3 = test: Alamar Blue viability assay; type: cell-based; details: Homo sapiens, Prostate, P53 Null, 96-hour exposure
Protocol: as §1

SK-OV-3 = test: Alamar Blue viability assay; type: cell-based; details: Homo sapiens, Ovarian carcinoma, P53 Mut, 96-hour exposure
Protocol: as §1

U-2 OS = test: Alamar Blue viability assay; type: cell-based; details: Homo sapiens, U2OS, Osteosarcoma, P53 WT, 96-hour exposure
Protocol: as §1

[1] = system: KD 13 (HeLa-derived, HSF1 siRNA); test: Alamar Blue assay of HSF1-deficient KD 13 line versus KD control cells; type: cell-based, human; details: 96 hours exposure, different concentrations
Protocol: FIG. 7. (A) Upper panel: HSF1 levels in cultures of KD control and KD13 cells as assayed by WB. Lower panel: number of alive KD control and KD13 cells after 1-4 days of culture as determined by Trypan Blue dye exclusion. […] Cell viability was assayed by Alamar Blue assay.
The most severely HSF1-deficient lines grew slowly. FIG. 7 reports on the properties of one such line, KD 13, which was compared to control lentivirus-transduced cells (KD control). The WB in FIG. 7A (upper panel) confirms that the KD 13 line is essentially devoid of HSF1. The lower panel compares growth of the cell line with that of the control cells (the graph showing numbers of Trypan Blue-excluding (live) cells after 1-4 days of culture). We conclude that the KD 13 line has partially overcome its HSF1 dependency.

## CN(C(=O)/C=C/C1=NCCCO1)c1ncc(-c2cccnc2)s1 [IHSF 115, (E)-3-(5,6-Dihydro-4H-[1,3]oxazin-2-yl)-N-methyl-N-(5-pyridin-3-yl-thiazol-2-yl)-acrylamide]
BT-20
  EC50: 8.2 µM
HCC1143
  EC50: 4.8 µM
HepG2
  EC50: 5.2 µM
IM9
  EC50: 2.3 µM
MM.1R
  EC50: 1.7 µM
NCI-H1975
  EC50: 5.1 µM
PC-3
  EC50: 4 µM
SK-OV-3
  EC50: 15 µM
U-2 OS
  EC50: 5.2 µM
[1]
  resistance of KD 13 line versus control lentivirus-transduced cells to killing: more resistant to killing

Reference: US11597708B2, “Inhibitors of heat shock factors and uses thereof” (HSF Pharmaceuticals SA, priority 2016, dated 2023)
